Source: PMC4569384, “[^11C]MADAM Used as a Model for Understanding the Radiometabolism of Diphenyl Sulfide Radioligands for Positron Emission Tomography (PET)” (PLoS ONE, 2015)
Like-named read-outs stand apart in the source and are kept apart here.

What was measured:
[1] = set-up: method as in PMID 17096093, PMID 18800204; conditions: cited from earlier work
[2] = Quantification of MADAM and metabolites in HLM incubations by UHPLC/Q-ToF-MS; format: in vitro ADME, human; conditions: for Concentration in HLM incubation: MADAM 10 μM initial
Protocol: (§1) MADAM and/or [^11C]MADAM (5–15 MBq) were incubated with HLM and RLM (0.5 mg/mL) at 37°C in 1 mL of 0.05 M potassium phosphate buffer (pH 7.4) containing 5 mM NADPH. Experiments were performed with MADAM concentrations of 1 and 10 μM. The incubation times were the following: […] (RLM experiments); 10, 45 and 90 min (HLM experiments). The incubation was stopped by adding an equal volume of ice-cold acetonitrile. The mixture was then vortexed and centrifuged and the supernatant was removed, evaporated. The residue was reconstituted in 150 μL mobile phase before being analyzed by radio-HPLC and UHPLC/Q-ToF-MS as described below. Control incubations in the absence of microsomes, MADAM or NADPH were also performed to assure that the observed peaks corresponded to MADAM metabolites.
(§2) The analyses were performed on a Waters (Milford, MA, USA) Acquity Ultra Performance LC^TM binary solvent manager coupled to a photodiode array detector and Waters (Micromass UK Limited, Manchester, UK) Q-Tof Premier. All the samples (10 μL) were injected onto a Waters Ethylene Bridged Hybrid (BEH) C18 column (2.1 x 50 mm, 1.7 μm) and eluted by a 5 min linear gradient starting from 100% water containing 0.1% formic acid and ending with 30% acetonitrile containing 0.1% formic acid at a flow rate of 0.5 mL/min. Positive electrospray ionization (+ESI) in V-mode with an extended dynamic range was used under the following conditions: capillary 3.5 kV, sampling cone 25 V, extraction cone 4.5 V, source temperature 100°C and desolvation temperature 380°C. Two scan functions, MS and MS^E, in the mass range of 100–1000 Da, were performed simultaneously. The collision energy was set to 5 eV during the MS acquisition and it was ramped from 10 to 35 eV during the MS^E acquisition. MetaboLynx^TM (Waters, Milford, MA, USA) was used to aid metabolite identification.
In the present study, we further aimed to estimate the concentration of the ligand (MADAM) as well as that of the identified metabolites, among them NHMADAM, SOMADAM and NHSOMADAM, for which reference compounds were available. UHPLC/Q-ToF-MS instrumentation was employed to quantify these compounds in RLM and HLM incubations using AFM as the internal standard. In HLM incubations, the concentration of MADAM decreased from 10 μM to 7.76 ± 0.5 μM at 30 min and approximately half of MADAM (5.1 ± 0.5 μM) was still present after an incubation time of 120 min. […] Negligible amounts of the other two metabolites, SOMADAM and NHSOMADAM, were detected at these times. The concentration of SOMADAM ranged from 0.12 ± 0.02 μM to 0.15 ± 0.01 μM over time. A very slight increase in the concentration of NHSOMADAM was observed, from 0.12 ± 0.01 μM to 0.32 ± 0.03 μM at 30 min and 120 min incubation times, respectively.

[3] = Quantification of MADAM and metabolites in RLM incubations by UHPLC/Q-ToF-MS; format: in vitro ADME, rat; conditions: for Concentration in RLM incubation / Concentration in RLM incubation (in words): MADAM 10 μM initial; for Concentration in RLM incubation (in words): various incubation times
Protocol: as §1, §2
The parent compound MADAM was present at a concentration of 1.83 ± 0.20 μM at 10 min and from 30 min the concentration was very low (0.17 to 0.09 μM), indicating a fast metabolism in RLM. […] However, the concentration of the latter declined to 2.08 ± 0.3 μM to at 10 min and to 0.72 ± 0.31 at 60 min. The quantification in HLM experiments was not undertaken after 120 min.

[4] = Incubation of [^11C]MADAM with rat liver microsomes, radio-HPLC; format: in vitro ADME; conditions: for Percentage of unchanged [^11C]MADAM: RLM 0.5 mg/mL, NADPH, no-carrier-added
Protocol: as §1
(§3) Reversed phase HPLC was used to determine the percentages of radioactivity in microsomal incubation samples that corresponded to unchanged radioligand and its radiometabolites. The HPLC system consists of a Merck Hitachi D-7000 pump, an interface module, a Merck Hitachi L-7400 UV absorbance detector (254 nm) in series with a Packard Radiomatic 150TR radiodetector equipped with a 600 μL flow cell, and a Rheodyne 7125 manual injector. A Waters μ-Bondapak C18 column (7.8 x 300 mm, 10 μm) with acetonitrile (A) and ammonium formate 0.1M (B) as the mobile phase was used with a flow rate of 6.0 mL/min, according to the following gradient: 0–4.5 min, (A/B) 10/90-15/85; 4.5–5.0 min, (A/B) 15/85-20/80; 5.0–5.5 min (A/B) 20/80-45/55; 5.5–9.0 min (A/B) 45/55; 9.0–10 min (A/B) 45/55-70/30; 10.0–20.0 min (A/B) 70/30. The detected peaks were integrated and their areas were expressed as a percentage of the sum of areas of all radioactive compounds present (decay-corrected).

[5] = Incubation of [^11C]MADAM with human liver microsomes, radio-HPLC; format: in vitro ADME; conditions: for Percentage of unchanged [^11C]MADAM: HLM 0.5 mg/mL, NADPH, no-carrier-added; for Intact [^11C]MADAM (%): HLM, t = 45 min
Protocol: as §1, §3

[6] = Radio-HPLC of rat urine after intravenous perfusion of [^11C]MADAM/MADAM; format: in vivo; conditions: for Percentage of intact [^11C]MADAM in urine: no carrier added
Protocol: as §3
All animal handling and experiments were carried out in accordance with the guidelines of Karolinska Institutet and were approved by the local laboratory animal ethics committee (N 363/05 and N 373/07). The rats were housed under standard laboratory conditions with free access to laboratory food and water ad libitum. Male Sprague-Dawley rats were anesthetized with isoflurane, via an E-Z anesthesia vaporizer (5% initially and then 1.5% to maintain anesthesia, blended with 7:3 air: O2 and delivered through a Microflex non-rebreathing mask from Euthanex Corporation, Palmer, PA. The rats were placed on a heating pad (37°C) while [^11C]MADAM (52–76 MBq) and/or MADAM (25 μg to 1 mg) as a perfusion were administered intravenously; the rats were sacrificed at various time points after the administration (15, 30 and 60 min). Urine samples were collected at each time point and acetonitrile (400 μL) was added. After centrifugation at 3000g for 4 min, the supernatant was injected into the radio-HPLC (section 2.3). The radioactivity of the precipitate was measured to quantify the efficiency of the acetonitrile extraction.

[7] = set-up: method as in PMID 16157534; conditions: 50 min after injection; cited from earlier work
[8] = set-up: method as in PMID 24857865; conditions: rats euthanized 15 and 30 min post injection; cited from earlier work
[9] = set-up: method as in earlier work; conditions: human, 60 minutes after injection, cited from earlier work
[10] = set-up: method as in PMID 24857865; conditions: cited from earlier work; for Fraction of total radioactivity in plasma: macaque plasma

## [11CH3]Oc1ccccc1O[C@@H](c1ccccc1)[C@@H]1CNCCO1 [(S,S)-[^11C]MeNER]
[1]
  Effect of addition of carrier on radiometabolic profile: not affect the radiometabolic profile

## Cc1ccc(Sc2ccccc2CN(C)C)c(N)c1 [MADAM]
[2]; incubation 30 min
  Concentration in HLM incubation: 7.76 ± 0.5 µM
[2]; incubation 120 min
  Concentration in HLM incubation: 5.1 ± 0.5 µM
[3]; incubation 10 min
  Concentration in RLM incubation: 1.83 ± 0.20 µM

## CNCc1ccccc1Sc1ccc(C)cc1N [NHMADAM]
[2]; incubation 30 min
  Concentration in HLM incubation: 2.08 ± 0.40 µM
[2]; incubation 120 min
  Concentration in HLM incubation: 2.89 ± 0.40 µM
[3]; incubation 10 min
  Concentration in RLM incubation: 2.08 ± 0.3 µM
[3]; incubation 60 min
  Concentration in RLM incubation: 0.72 ± 0.31 µM

## CNCc1ccccc1[S+]([O-])c1ccc(C)cc1N (stereo not shown) [NHSOMADAM]
[2]; incubation 30 min
  Concentration in HLM incubation: 0.12 ± 0.01 µM
[2]; incubation 120 min
  Concentration in HLM incubation: 0.32 ± 0.03 µM
[3]
  Concentration in RLM incubation (in words): very low concentrations

## Cc1ccc(S(=O)(=O)c2ccccc2CN(C)C)c(N)c1 [SO2MADAM]
[2]; HLM, MADAM 10 μM
  Detection as metabolite of MADAM in microsomal preparations: not detected
[3]; RLM, MADAM 10 μM
  Detection as metabolite of MADAM in microsomal preparations: not detected

## Cc1ccc([S+]([O-])c2ccccc2CN(C)C)c(N)c1 (stereo not shown) [SOMADAM]
[3]
  Concentration in RLM incubation (in words): very low concentrations

## Cc1ccc(Sc2ccccc2CN(C)[11CH3])c(N)c1 [[^11C]MADAM]
[4]; incubation 1 min
  Percentage of unchanged [^11C]MADAM: 3.3 ± 1%
[4]; incubation 1 min, listed as [ ^11 C]MADAM
  Percentage of unchanged [^11C]MADAM: 3.3 ± 1% ^1
[4]; incubation 4 min
  Percentage of unchanged [^11C]MADAM: no [^11C]MADAM was detected
[4]; RLM experiments, control without either NADPH or microsomes
  Radiometabolites in control incubations: No radiometabolites were detected
[4]; RLM, t = 1 min, carrier MADAM 10 μM
  Intact [^11C]MADAM (%): 78 ± 4%
[5]; incubation 10 min
  Percentage of unchanged [^11C]MADAM: 51 ± 4%
[5]; incubation 10 min, listed as [ ^11 C]MADAM
  Percentage of unchanged [^11C]MADAM: 51 ± 4%
[5]; incubation 45 min
  Percentage of unchanged [^11C]MADAM: 35 ± 1%
[5]; incubation 45 min, listed as [ ^11 C]MADAM
  Percentage of unchanged [^11C]MADAM: 35 ± 1%
[5]; incubation 90 min
  Percentage of unchanged [^11C]MADAM: 16 ± 1%
[5]; incubation 90 min, listed as [ ^11 C]MADAM
  Percentage of unchanged [^11C]MADAM: 16 ± 1%
[5]; HLM experiments, control without either NADPH or microsomes
  Radiometabolites in control incubations: No radiometabolites were detected
[5]; carrier MADAM 1 μM
  Intact [^11C]MADAM (%): 58 ± 2%
[5]; carrier MADAM 10 μM
  Intact [^11C]MADAM (%): 80 ± 5%
[6]; high dose of MADAM approximately 1 mg perfused
  Radiometabolites by radio-HPLC or UHPLC/Q-ToF-MS: no radiometabolites were detected
[6]; i.v. perfusion 15 min, carrier MADAM 25 μg
  Percentage of unchanged [^11C]MADAM in urine: 16%
[6]; i.v. perfusion 15 min, carrier MADAM 125 μg
  Radiometabolites in urine: no radiometabolites were observed
[6]; i.v. perfusion 15 min
  Percentage of intact [^11C]MADAM in urine: 9%
[6]; i.v. perfusion 30 min
  Percentage of intact [^11C]MADAM in urine: undetectable
[6]; i.v. perfusion 60 min
  Percentage of intact [^11C]MADAM in urine: undetectable
[6]; more than 25 μg carrier, perfusion time 30 and 60 min
  Radiometabolites in urine: no radiometabolites were detected
[7]
  Percentage of unchanged radioligand in human plasma: approximately 40%
[8]
  Radioactive species in rat brain by radio-HPLC: only one radioactive peak corresponding to [^11C]MADAM

## Cc1ccc(C2CC3CCC(C2C(=O)O[11CH3])N3CC=CI)cc1 (stereo not shown) [[^11C]PE2I]
[1]
  Effect of addition of carrier on radiometabolic profile: not affect the radiometabolic profile

## [11CH3]N1CCc2cc(Cl)c(O)cc2C2c3ccccc3CCC21 (stereo not shown) [[^11C]SCH 39166]
[9]; high specific radioactivity
  Percentage unchanged in plasma: approximately 30%
[9]; low specific radioactivity
  Percentage unchanged in plasma: ~15%

## Cc1ccc(S(=O)(=O)c2ccccc2CN(C)[11CH3])c(N)c1 [[^11C]SO2MADAM]
[10]; macaque plasma after injection of [^11C]MADAM
  Detection in plasma as further oxidation product: No further oxidation to [^11C]SO2MADAM was detected

## Cc1ccc([S+]([O-])c2ccccc2CN(C)[11CH3])c(N)c1 (stereo not shown) [[^11C]SOMADAM]
[10]; 4 min after injection of [^11C]MADAM
  Fraction of total radioactivity in plasma: 5%
[10]; 15 min after injection of [^11C]MADAM
  Fraction of total radioactivity in plasma: 1%
